The test system of assay [1] is P388. The assay is described as follows: Cytotoxicity against P-388 cancer cell line. The conditions noted are these: Mus musculus, read-out: ED50 (the source's name). The assay is classed as functional, Homo sapiens.
Assay [2] deals with P388. The assay is described as follows: Cytotoxicity against leukemia P-388 tumor cells. The assay is classed as functional. Particulars: Mus musculus, read-out: ED50 (the source's name).

The values below come from ChEMBL document CHEMBL1143652, “Joys of molecules. 2. Endeavors in chemical biology and medicinal chemistry” (J Med Chem, 2005).

In brackets after ≈: the same amount, converted by molar mass.

As to `CC(C)=CC[C@@H]1C(=O)C2=C(OC(C)(C)C=C2)C(=O)[C@@]12OC(=O)C1=C[C@]3(O)C[C@H]4C(C)(C)OC(CC=C(C)C)(C3=O)[C@]14O2` [LATERIFLORONE], the EC50 in the assay with P388 [1] and in the assay with P388 [2] was 5.4 mg/L (≈ 9.33 µM) throughout.
